Laboratory results as given in publication PMC7559897, “Designed Antimicrobial Peptides Against Trauma-Related Cutaneous Invasive Fungal Wound Infections” (Journal of Fungi, 2020).
≈ marks a conversion by molar mass, not a printed value. Bridge positions count the residues as written; N and C are the ends. Square brackets hold non-standard residues; d marks the D form. Peptide text beside a SMILES is read from it. Orn = NCCC[C@H](N)C(=O)O

Assays:
[1] = test system: S. aureus 49525 (Xen36 luciferase); type: cell-based, Staphylococcus aureus; settings: 8 μg/mL, 60 min incubation, bioluminescence, triplicates from two independent experiments
Source text: (§1) Fungal and bacterial strains were obtained from American Type Culture Collection (ATCC, Manassas, VA, USA) or the clinical isolate collection at Trideum Biosciences (Frederick, MD, USA) and are presented in Table 1 and Table 2, respectively. Bioluminescence strains of P. aeruginosa 19660, transfected with the Xen5 luciferase gene, and S. aureus ATCC R 49525TM (Wright), transfected with the Xen36 luciferase gene, were obtained from Perkin Elmer (Waltham, MA, USA).
(§2) Real-time killing of bacterial cells, P. aeruginosa or S. aureus, and mammalian cytotoxicity to assess dAMP off-target toxicity was evaluated using bioluminescent cells. The L929 fibroblast cells (ATCC, Manassas, VA, USA) were made bioluminescent by transfection with a luciferase gene. Cells (1 × 10^4 cells, 100 μL) were plated in 96-well black-walled plates and the candidate dAMPs were 2-fold serially diluted from specified concentrations in growth medium supplemented with 150 μg/mL D-luciferin. Each concentration was performed in triplicate, with the final volume being 200 μL. Imaging was performed at select times after the addition of the dAMP, and compared to concurrently run vehicle-control, using an IVIS Lumina imaging system (Caliper Life Sciences, Inc., Hopkinton, MA, USA). For imaging, the 96-well plate was positioned on the stage (12.5-cm field of view), with an open emission filter, binning of 4, and f-stop 1 and a 1-min exposure time. Monitoring bioluminescence allows assessment of the kinetics of cellular viability as there is a tight correlation between the bioluminescent signal and cell viability. Data analysis was performed using the Living Image software program (version 4.3, Caliper Life Sciences, Inc., Hopkinton, MA, USA).
(§3) Figure 3 RP553, RP556, RP557 rapidly destroy P. aeruginosa and S. aureus. The bioluminescence of viable P. aeruginosa 19,660 and S. aureus 49,525 cells was quantitated in real time with an IVIS Lumina bioimaging system. Data represent the mean ± SE of triplicate replicates from two independent experiments. For some points, the error bars are shorter than the height of the symbols.

[2] = test system: vulvovaginal candidiasis infection; settings: rodent vulvovaginal candidiasis, after three days of daily treatment; cited from earlier work
Source text: The dAMPs RP504, RP554 and RP557 were thus tested for their ability to treat a rodent vulvovaginal candidiasis infection. […] A daily dose with a 2% concentration lowered the CFU/sample by more than 4 logs compared to the con ...

A. baumannii 6043 = type: cell-based, Acinetobacter baumannii; settings: 6043, 24 h
Procedure: (§4) Assays were performed by Trideum Biosciences (Frederick, MD, USA). Isolates were thawed from −80 °C storage and sub-cultured on trypticase soy agar plates at 37 °C prior to experimentation. A single colony was aseptically picked from the agar plate and released in 30 mL trypticase soy broth and incubated overnight at 37 °C incubator. Following which the bacterial culture was diluted to approximately 10^6 colony forming units (CFU)/mL using 2X cation adjusted Mueller–Hinton broth and added to the dAMP solutions (0, 2, 4, 8, 16, 32, 64, and 128 μg/mL) which had been formulated in water at 256 μg/mL and then serially diluted in media on 96-well pates. For fungal evaluation, potato dextrose broth and potato dextrose agar plates were used. The treated cultures were then incubated for 24 h at 37 °C and pathogen growth was measured by absorbance at 600 nm. Four replicas were included for each dAMP concentration. Each MIC was assigned to the lowest test agent concentration resulting in at least three out of four wells showing no growth based on an optical density (OD) reading of <0.1.

A. baumannii ATCC 17978 = type: cell-based, Acinetobacter baumannii; settings: ATCC 17978, 24 h
Procedure: as §4

A. baumannii 6838 = type: cell-based, Acinetobacter baumannii; settings: 6838, 24 h
Procedure: as §4

Candida albicans Y-326 = type: cell-based; settings: Y-326, 24 h
Procedure: as §4

[3] = test system: Aspergillus fumigatus 9651; type: cell-based; settings: 9651, 24 h
Procedure: as §4

E. cloacae 6053 = type: cell-based; settings: 6053, 24 h
Procedure: as §4

[4] = test system: Candida parapsilosis Y-1763; type: cell-based; settings: Y-1763, 24 h
Procedure: as §4

S. epidermis ATCC 51625 = type: cell-based; settings: ATCC 51625, 24 h
Procedure: as §4

Candida krusei Y-27803 = type: cell-based; settings: Y-27803, 24 h
Procedure: as §4

[5] = test system: Aspergillus flavus MYA-3651; type: cell-based; settings: 24 h
Procedure: as §4

[6] = test system: Mucor circinelloides NRRL 3631; type: cell-based; settings: NRRL 3631, 24 h
Procedure: as §4

Candida krusei Y-27825 = type: cell-based; settings: Y-27825, 24 h
Procedure: as §4

[7] = test system: Candida parapsilosis Y-1761; type: cell-based; settings: Y-1761, 24 h
Procedure: as §4

Candida albicans Y-6359 = type: cell-based; settings: Y-6359, 24 h
Procedure: as §4

[8] = test system: Fusarium solani NRRL 28548; type: cell-based; settings: NRRL 28548, 24 h
Procedure: as §4

E. cloacae 6054 = type: cell-based; settings: 6054, 24 h
Procedure: as §4

[9] = test system: Absidia corymbifera NRRL 6251; type: cell-based; settings: NRRL 6251, 24 h
Procedure: as §4

[10] = test system: Aspergillus flavus MYA-1004; type: cell-based; settings: 24 h
Procedure: as §4

[11] = test system: Aspergillus fumigatus 9648; type: cell-based; settings: 9648, 24 h
Procedure: as §4

[12] = test system: P. aeruginosa 19660 (Xen5 luciferase); test: Bioluminescent time-kill assay; type: cell-based, Pseudomonas aeruginosa; settings: 8 μg/mL, 60 min, bioluminescence, triplicates from two independent experiments
Source text: as §1, §2, §3

K. pneumonia 6069 = type: cell-based, Klebsiella pneumoniae; settings: 24 h
Procedure: as §4

K. pneumonia ATCC 10031 = type: cell-based, Klebsiella pneumoniae; settings: ATCC 10031, 24 h
Procedure: as §4

S. aureus B-767 = type: cell-based, Staphylococcus aureus; settings: B-767, 24 h
Procedure: as §4

MRSA 6313 = type: cell-based, Staphylococcus aureus; settings: 6313, 24 h
Procedure: as §4

MRSA ATCC 33592 = type: cell-based, Staphylococcus aureus; settings: ATCC 33592, 24 h
Procedure: as §4

S. aureus 6061 = type: cell-based, Staphylococcus aureus; settings: 6061, 24 h
Procedure: as §4

MRSA 6381 = type: cell-based, Staphylococcus aureus; settings: 6381, 24 h
Procedure: as §4

P. aeruginosa ATCC 19660 = type: cell-based, Pseudomonas aeruginosa; settings: ATCC 19660, 24 h
Procedure: as §4

P. aeruginosa ATCC 27853 = type: cell-based, Pseudomonas aeruginosa; settings: ATCC 27853, 24 h
Procedure: as §4

P. aeruginosa 6186 = type: cell-based, Pseudomonas aeruginosa; settings: 6186, 24 h
Procedure: as §4

For CC[C@H](C)[C@H](NC(=O)CNC(=O)CNC(=O)[C@@H]1CSSC[C@H](NC(=O)CNC(=O)CNC(=O)[C@H](CC(C)C)NC(=O)[C@H](CCCN)NC(=O)[C@H](C)NC(=O)[C@H](CCCN)NC(=O)[C@@H](NC(=O)[C@H](CCCN)NC(=O)[C@@H](N)Cc2ccccc2)[C@@H](C)CC)C(=O)N[C@@H](CC(C)C)C(=O)NCC(=O)N[C@@H](CCCN)C(=O)N[C@@H](Cc2ccccc2)C(=O)N1)C(=O)N[C@@H](CCCN)C(=O)N[C@@H](C)C(=O)N[C@@H](CCCN)C(=O)N[C@@H](CC(C)C)C(=O)N[C@@H](C)C(=O)N[C@@H](Cc1ccccc1)C(N)=O [RP504] (H-F[Orn]I[Orn]A[Orn]LGGCLG[Orn]FCGGI[Orn]A[Orn]LAF-NH2; disulfide 10-15), the S. aureus killing [1] is listed as 13%, the “reduction of CFU/tissue sample” value [2] is listed as ≥ 2.5 logs and the “MIC against A. baumannii 6043” value (A. baumannii 6043) is listed as 32 µg/mL (≈ 13.3 µM). For the same compound, the “MIC against A. baumannii ATCC 17978” value (A. baumannii ATCC 17978) was 32 µg/mL (≈ 13.3 µM), the “MIC against A. baumannii 6838” value (A. baumannii 6838) was 64 µg/mL (≈ 26.5 µM) and the “MIC against Candida albicans Y-326” value (Candida albicans Y-326) was 8 µg/mL (≈ 3.32 µM). For the same compound, the “MIC against Aspergillus fumigatus 9651” value [3] was >128 µg/mL, the “MIC against E. cloacae 6053” value (E. cloacae 6053) was 32 µg/mL (≈ 13.3 µM) and the “MIC against Candida parapsilosis Y-1763” value [4] was 2 µg/mL (≈ 0.829 µM). The “MIC against S. epidermis ATCC 51625” value (S. epidermis ATCC 51625) was 16 µg/mL (≈ 6.63 µM), the “MIC against Candida krusei Y-27803” value (Candida krusei Y-27803) was 8 µg/mL (≈ 3.32 µM) and the “MIC against Aspergillus flavus MYA-3651” value [5] was >128 µg/mL. For the same compound, the “MIC against Mucor circinelloides NRRL 3631” value [6] was >128 µg/mL, the “MIC against Candida krusei Y-27825” value (Candida krusei Y-27825) was 8 µg/mL (≈ 3.32 µM) and the “MIC against Candida parapsilosis Y-1761” value [7] was 8 µg/mL (≈ 3.32 µM). The “MIC against Candida albicans Y-6359” value (Candida albicans Y-6359) was 4 µg/mL (≈ 1.66 µM), the “MIC against Fusarium solani NRRL 28548” value [8] was 2 µg/mL (≈ 0.829 µM) and the “MIC against E. cloacae 6054” value (E. cloacae 6054) was 64 µg/mL (≈ 26.5 µM). For the same compound, the “MIC against Absidia corymbifera NRRL 6251” value [9] was 8 µg/mL (≈ 3.32 µM), the “MIC against Aspergillus flavus MYA-1004” value [10] was >128 µg/mL and the “MIC against Aspergillus fumigatus 9648” value [11] was >128 µg/mL. The P. aeruginosa destroyed [12] was 25%, the “MIC against K. pneumonia 6069” value (K. pneumonia 6069) was 32 µg/mL (≈ 13.3 µM) and the “MIC against K. pneumonia ATCC 10031” value (K. pneumonia ATCC 10031) was 32 µg/mL (≈ 13.3 µM). The “MIC against S. aureus B-767” value (S. aureus B-767) was 32 µg/mL (≈ 13.3 µM), the “MIC against MRSA 6313” value (MRSA 6313) was 64 µg/mL (≈ 26.5 µM) and the “MIC against MRSA ATCC 33592” value (MRSA ATCC 33592) was 32 µg/mL (≈ 13.3 µM). For the same compound, the “MIC against S. aureus 6061” value (S. aureus 6061) was 64 µg/mL (≈ 26.5 µM), the “MIC against MRSA 6381” value (MRSA 6381) was 64 µg/mL (≈ 26.5 µM) and the “MIC against P. aeruginosa ATCC 19660” value (P. aeruginosa ATCC 19660) was 16 µg/mL (≈ 6.63 µM). The “MIC against P. aeruginosa ATCC 27853” value (P. aeruginosa ATCC 27853) was 16 µg/mL (≈ 6.63 µM) and the “MIC against P. aeruginosa 6186” value (P. aeruginosa 6186) was 16 µg/mL (≈ 6.63 µM).
